The term IC50 denotes the point on the concentration scale where inhibition reaches its midpoint.

Sequence of human IDO1 (P14902 whole entry): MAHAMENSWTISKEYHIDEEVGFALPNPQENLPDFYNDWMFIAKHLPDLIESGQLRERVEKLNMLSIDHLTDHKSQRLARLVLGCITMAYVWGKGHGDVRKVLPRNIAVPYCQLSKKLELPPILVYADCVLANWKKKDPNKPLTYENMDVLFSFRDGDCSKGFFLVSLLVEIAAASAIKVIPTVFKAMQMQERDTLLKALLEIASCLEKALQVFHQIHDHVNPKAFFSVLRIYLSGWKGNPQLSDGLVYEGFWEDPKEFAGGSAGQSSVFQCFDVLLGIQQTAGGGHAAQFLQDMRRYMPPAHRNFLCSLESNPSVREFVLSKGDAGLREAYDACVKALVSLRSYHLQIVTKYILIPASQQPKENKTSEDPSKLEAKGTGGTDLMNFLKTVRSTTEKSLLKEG

This experiment has as its target human IDO1 (Homo sapiens, UniProt P14902). As to the kind of experiment: Assessment of human IDO-1 inhibitory activity in Hela cells (Interferon-gamma activated, Ehrlich reagent, absorbance at 490 nm). The arrangement: endogenous in cells; host or cells: HeLa cells stimulated with interferon-gamma. It is filed as cell-based. The settings on record: 18 hours. How it is done:
Exemplary compounds were tested for inhibition of IDO activity.
HeLa cells were seeded at 20,000 cells per 30 µL per well with RPMI/phenol red free media containing 10% FBS in a 384-well tissue culture plate (black with clear bottoms). 50 nL of compound was added to cells and incubated at 37° C. for one hour. 20 μL of the recombinant human Interferon-gamma (R&D System, Cat. #285-IF, at final concentration of 10 ng/ml) or recombinant murine Interferon-gamma (PEPROTECH® Inc., Cat. #315-05, final concentration of 5 ng/ml) was added to activate IDO signaling. The cells were incubated for 18 hours in 37° C. incubator with 5% CO2.
Compound treatment was stopped by adding 5 μl trichloroacetic acid to a final concentration of 3%. Subsequently, the cell plate was further incubated at 50° C. for 30 minute. An equal volume supernatant (20 μL) and 2% (w/v) Ehrlich reagent (4-dimethylaminobenzaldehyde) in glacial acetic acid were mixed in a new clear bottom 384-well plate. This plate was incubated at room temperature for 30 minutes. Absorbance at 490 nm was measured on Envision plate reader.
Compound IC50 values were calculated using counts from unstimulated (no INF-gamma treatment) wells as 100% inhibition. INF-gamma treatment without compound treatment as 0% inhibition.
As to `CCC(CC(=O)O)c1ccc(N2CCC(C)CC2)c(Nc2ccc(C#N)cc2)c1` (single isomer, unassigned) [Example 41 Enantiomer 2, 3-(3-((4-Cyanophenyl)amino)-4-(4-methylpiperidin-1-yl)phenyl)pentanoic acid], the IC50 was under 50 nM.

`CCC(CC(=O)O)c1ccc(N2CCC(C)CC2)c(Nc2cnc(OC)nc2)c1` (single isomer, unassigned) [Example 44, 3-(3-((2-methoxypyrimidin-5-yl)amino)-4-(4-methylpiperidin-1-yl)phenyl) pentanoic acid] came in with an IC50 of over 50 nM.

`CCOc1ncc(Nc2cc(C(CC)CC(=O)O)ccc2N2CCC(C)CC2)cn1` (single isomer, unassigned) [Example 45, 3-(3-((2-ethoxypyrimidin-5-yl)amino)-4-(4-methylpiperidin-1-yl)phenyl)pentanoic acid]: the IC50 was over 50 nM.

As to `CCC(CC(=O)O)c1ccc(N2CCC(C)CC2)c(NC(=O)Nc2ccc(C)cc2)c1` (single isomer, unassigned) [Example 46 Enantiomer 2, 3-(4-(4-Methylpiperidin-1-yl)-3-(3-(p-tolyl)ureido)phenyl) pentanoic acid], the IC50 is over 50 nM.

The compound `CC(CC(=O)O)c1ccc(N(CC(C)(C)O)C2CCCCC2)c(Nc2ccc(Cl)cc2)c1` (single isomer, unassigned) [Example 48 Enantiomer 2, 3-(3-((4-Chlorophenyl)amino)-4-(cyclohexyl(2-hydroxy-2-methylpropyl)amino)phenyl)butanoic acid] returned an IC50 of under 5 nM.

For `CCC(CC(=O)O)c1ccc(N(CC)C2CCCOC2)c(Nc2ccc(C#N)cc2)c1` (single isomer, unassigned) [Example 64, 3-(3-((4-cyanophenyl)amino)-4-(ethyl (tetrahydro-2H-pyran-3-yl)amino)phenyl)pentanoic acid], the IC50 is under 5 nM.

Compound `CCOc1ncc(Nc2cc(C(CC)CC(=O)O)ccc2N(CC)C2CCCOC2)cn1` (single isomer, unassigned) [Example 66, 3-(3-((2-ethoxypyrimidin-5-yl)amino)-4-(ethyl(tetrahydro-2H-pyran-3-yl)amino)phenyl)pentanoic acid] showed an IC50 of under 5 nM.

`CCC(CC(=O)O)c1ccc(N(CC)C2CCCOC2)c(Nc2ccc(C#N)cc2)c1` (single isomer, unassigned) [Example 67, 3-(3-((4-cyanophenyl)amino)-4-(ethyl (tetrahydro-2H-pyran-3-yl)amino)phenyl)pentanoic acid] registered an IC50 of under 5 nM.

For the compound `CCOc1ncc(Nc2cc(C(CC)CC(=O)O)cc(F)c2N(CC)C2CCOCC2)cn1` (single isomer, unassigned) [Example 139, 3-(3-((2-ethoxypyrimidin-5-yl)amino)-4-(ethyl (tetrahydro-2H-pyran-4-yl)amino)-5-fluorophenyl)pentanoic acid], the IC50 is under 5 nM.

Regarding `CCC(CC(=O)O)c1cc(F)c(N(CC)C2CCOCC2)c(Nc2ccc(C#N)cn2)c1` (single isomer, unassigned) [Example 143, 3-(3-((5-cyanopyridin-2-yl)amino)-4-(ethyl (tetrahydro-2H-pyran-4-yl)amino)-5-fluorophenyl)pentanoic acid], the IC50 was under 5 nM.

In the case of `CCC(CC(=O)O)c1cc(F)c(N(CC)C2CCOCC2)c(Nc2ccc(Cl)cc2)c1` (single isomer, unassigned) [Example 144, 3-(3-((4-chlorophenyl)amino)-4-(ethyl (tetrahydro-2H-pyran-4-yl)amino)-5-fluorophenyl)pentanoic acid], the IC50 was under 5 nM.

Compound `CCN(c1ccc(C(COC)CC(=O)O)cc1Nc1ccc(C#N)cc1)C1CCS(=O)(=O)CC1` (single isomer, unassigned) [Example 169, 3-(3-((4-cyanophenyl)amino)-4-((1,1-dioxidotetrahydro-2H-thiopyran-4-yl)(ethyl)amino)phenyl)-4-methoxybutanoic acid] displayed a half-maximal inhibitory concentration (IC50) of over 50 nM.

`CCCN(c1ccc(C(COC)CC(=O)O)cc1Nc1ccc(F)cc1)C1CCS(=O)(=O)CC1` (single isomer, unassigned) [Example 186, 3-(4-((1,1-dioxidotetrahydro-2H-thiopyran-4-yl)(propyl)amino)-3-((4-fluorophenyl)amino)phenyl)-4-methoxybutanoic acid]: the IC50 was under 5 nM.

In turn, `C[C@@H]1CN(c2ccc(C(CC(=O)O)C3CC3)cc2Nc2ccc(Cl)cc2)C[C@H](C)O1` (single isomer, unassigned) [Example 248] returned an IC50 of under 50 nM.

`CCOc1ncc(Nc2cc(C(CC(=O)O)C3CC3)ccc2N2C[C@@H](C)O[C@@H](C)C2)cn1` (single isomer, unassigned) [Example 249] yielded an IC50 of over 50 nM.

`Cc1ccc(NC(=O)Nc2cc(C(CC(=O)O)C3CC3)ccc2N2C[C@@H](C)O[C@@H](C)C2)cc1` (single isomer, unassigned) [Example 251 Enantiomer 2] had a concentration for half-maximal inhibition (IC50) of over 50 nM.

With `C[C@@H]1CN(c2ccc(C(CC(=O)O)C3CC3)cc2NC(=O)Nc2ccc(Cl)cc2F)C[C@H](C)O1` (single isomer, unassigned) [Example 253], the IC50 is over 50 nM.

Compound `CCN(c1ccc(C(CC(=O)O)C2CC2)cc1NC(=O)Nc1ccc(C#N)cc1)C1CCOCC1` (single isomer, unassigned) [Example 255 Enantiomer 2, 3-(3-(3-(4-Cyanophenyl)ureido)-4-(ethyl(tetrahydro-2H-pyran-4-yl)amino)phenyl)-3-cyclopropylpropanoic acid] displayed an IC50 of over 50 nM.

`COCCN(c1ccc(C(COC)CC(=O)O)cc1Nc1ccc(Cl)cc1)C1CCOCC1` (single isomer, unassigned) [Example 256 Enantiomer 2, 3-(3-((4-Chlorophenyl)amino)-4-((2-methoxyethyl)(tetrahydro-2H-pyran-4-yl)amino)phenyl)-4-methoxybutanoic acid] registered an IC50 of under 5 nM.

With `COCCN(c1ccc(C(COC)CC(=O)O)cc1Nc1ccc(C#N)cc1)C1CCOCC1` (single isomer, unassigned) [Example 259, 3-(3-((4-cyanophenyl)amino)-4-((2-methoxyethyl)(tetrahydro-2H-pyran-4-yl)amino)phenyl)-4-methoxybutanoic acid], the IC50 was under 50 nM.

Consider `COCCN(c1ccc(C(COC)CC(=O)O)cc1Nc1ccc(F)cc1)C1CCOCC1` (single isomer, unassigned) [Example 260, 3-(3-((4-fluorophenyl)amino)-4-((2-methoxyethyl)(tetrahydro-2H-pyran-4-yl)amino)phenyl)-4-methoxybutanoic acid], for which the IC50 is under 50 nM.

Regarding `COCCN(c1ccc(C(COC)CC(=O)O)cc1NC(=O)Nc1ccc(C)cc1)C1CCOCC1` (single isomer, unassigned) [Example 261 Enantiomer 2, 4-Methoxy-3-(4-((2-methoxyethyl)(tetrahydro-2H-pyran-4-yl)amino)-3-(3-(p-tolyl)ureido)phenyl)butanoic acid], the IC50 is over 50 nM.

In turn, `COCCN(c1ccc(C(COC)CC(=O)O)cc1NC(=O)Nc1ccc(Cl)cc1F)C1CCOCC1` (single isomer, unassigned) [Example 263, 3-(3-(3-(4-chloro-2-fluorophenyl)ureido)-4-((2-methoxyethyl)(tetrahydro-2H-pyran-4-yl)amino)phenyl)-4-methoxybutanoic acid] gave an IC50 of over 50 nM.

In turn, `CCC(CC(=O)O)c1ccc(N(CC(F)F)C2CCOCC2)c(Nc2ccc(Cl)cc2)c1` (single isomer, unassigned) [Example 318 Enantiomer 2, 3-(3-((4-Chlorophenyl)amino)-4-((2,2-difluoroethyl)(tetrahydro-2H-pyran-4-yl)amino)phenyl)pentanoic acid] registered an IC50 of under 5 nM.

`COCC(CC(=O)O)c1ccc(N(CC(F)F)C2CCOCC2)c(Nc2ccc(Cl)cc2)c1` (single isomer, unassigned) [Example 321 Enantiomer 2, 3-(3-((4-Chlorophenyl)amino)-4-((2,2-difluoroethyl)(tetrahydro-2H-pyran-4-yl)amino)phenyl)-4-methoxybutanoic acid] displayed an IC50 of under 5 nM.

`COCC(CC(=O)O)c1ccc(N(CC(F)F)C2CCOCC2)c(Nc2ccc(C#N)cc2)c1` (single isomer, unassigned) [Example 323] displayed an IC50 of under 5 nM.

For `CCC(CC(=O)O)c1ccc(N(CC)C2CCS(=O)(=O)CC2)c(Nc2ccc(Cl)cc2)c1` (single isomer, unassigned) [Example 334 Enantiomer 2, 3-(3-((4-Chlorophenyl)amino)-4-((1,1-dioxidotetrahydro-2H-thiopyran-4-yl)(ethyl)amino)phenyl)pentanoic acid], the IC50 is under 5 nM.

`CCN(c1ccc(C(CC(=O)O)C2CC2)cc1Nc1ccc(OC)nc1)C1CCS(=O)(=O)CC1` (single isomer, unassigned) [Example 346, 3-cyclopropyl-3-(4-((1,1-dioxidotetrahydro-2H-thiopyran-4-yl)(ethyl)amino)-3-((6-methoxypyridin-3-yl)amino)phenyl)propanoic acid] displayed an IC50 of under 50 nM.

For `CCN(c1ccc(C(CC(=O)O)C2CC2)cc1Nc1ccc(F)cc1)C1CCS(=O)(=O)CC1` (single isomer, unassigned) [Example 347, 3-cyclopropyl-3-(4-((1,1-dioxidotetrahydro-2H-thiopyran-4-yl)(ethyl)amino)-3-((4-fluorophenyl)amino)phenyl)propanoic acid], the IC50 is under 5 nM.

The values are drawn from patent publication US10399932B2, “Inhibitors of indoleamine-2,3-dioxygenase for the treatment of cancer” (BRISTOL-MYERS SQUIBB COMPANY, priority 2015, dated 2019).
